Assay results from the CheMixHub viscosity set.

Assay: xn = mol fraction of the nth substance listed

CCCCCCCCCCCC(=O)OCC + CCCCCCO
viscosity [mPa·s], 101.33 kPa
Conditions	293.15 K	298.15 K	303.15 K	308.15 K	313.15 K	318.15 K	323.15 K
x2 = 0.1	3.266	2.909	2.623	2.367	2.136	1.965	1.778
x2 = 0.2	3.214	2.867	2.596	2.334	2.09	1.918	1.731
x2 = 0.2999	3.216	2.872	2.575	2.309	2.095	1.896	1.724
x2 = 0.4	3.215	2.868	2.57	2.296	2.067	1.883	1.695
x2 = 0.4999	–	2.906	2.597	2.316	2.073	1.896	1.7
x2 = 0.5	3.25	–	–	–	–	–	–
x2 = 0.5999	3.374	–	–	–	–	–	–
x2 = 0.6	–	3.01	2.673	2.379	2.13	1.942	1.725
x2 = 0.7	3.486	3.101	2.771	2.459	2.186	1.965	1.761
x2 = 0.8	3.852	3.366	2.979	2.621	2.316	2.079	1.848
x2 = 0.8999	4.374	–	–	–	–	–	–
x2 = 0.9	–	3.769	3.316	2.902	2.568	2.261	1.972

CCN(CC)c1ccccc1 + CCCCCCO
viscosity [mPa·s], 100 kPa
Conditions	x1 = 0.1057	x1 = 0.1952	x1 = 0.3004	x1 = 0.4021	x1 = 0.5011	x1 = 0.6117	x1 = 0.7135	x1 = 0.8163	x1 = 0.9045
303.15 K	3.391	3.041	2.695	2.423	2.207	2.014	1.879	1.78	1.725
308.15 K	2.85	2.524	2.226	1.997	1.814	1.667	1.577	1.525	1.501
313.15 K	2.403	2.096	1.835	1.652	1.518	1.405	1.332	1.297	1.313
318.15 K	2.105	1.801	1.569	1.421	1.314	1.218	1.151	1.119	1.148

CCCCC(CC)COC(C)=O (configuration not stated) + CCCCCO
viscosity [mPa·s], 101.33 kPa
Conditions	x1 = 0.1041	x1 = 0.2073	x1 = 0.3002	x1 = 0.4211	x1 = 0.4987	x1 = 0.6	x1 = 0.7008	x1 = 0.8092	x1 = 0.9033
293.15 K	3.692	3.321	3.019	2.666	2.462	2.219	2	1.79	1.625
303.15 K	2.68	2.451	2.262	2.037	1.905	1.745	1.599	1.456	1.342
313.15 K	2.119	1.955	1.818	1.653	1.556	1.437	1.328	1.22	1.134
323.15 K	1.255	1.209	1.169	1.119	1.087	1.048	1.01	0.971	0.938

CCCCCCCCCCCC(=O)OCC + CCCCCO
viscosity [mPa·s], 101.33 kPa
Conditions	x2 = 0.1	x2 = 0.2	x2 = 0.2999	x2 = 0.4	x2 = 0.4999	x2 = 0.6	x2 = 0.7	x2 = 0.8	x2 = 0.9
293.15 K	3.228	3.128	3.064	3.018	2.992	2.994	3.044	3.147	3.437
298.15 K	2.884	2.802	2.741	2.699	2.68	2.667	2.706	2.783	3.024
303.15 K	2.603	2.515	2.46	2.424	2.387	2.383	2.403	2.479	2.663
308.15 K	2.349	2.275	2.238	2.173	2.141	2.131	2.142	2.201	2.351
313.15 K	2.12	2.065	2.014	1.954	1.926	1.913	1.919	1.963	2.074
318.15 K	1.948	1.888	1.852	1.801	1.765	1.745	1.735	1.776	1.867
323.15 K	1.759	1.699	1.658	1.601	1.569	1.546	1.553	1.584	1.652

CCCCC(CC)COC(C)=O (configuration not stated) + CCCCO
viscosity [mPa·s], 101.33 kPa
Conditions	x1 = 0.0991	x1 = 0.2017	x1 = 0.2984	x1 = 0.4115	x1 = 0.5002	x1 = 0.6078	x1 = 0.7049	x1 = 0.8061	x1 = 0.9005
293.15 K	2.681	2.504	2.344	2.177	2.052	1.91	1.791	1.674	1.572
303.15 K	2.139	2.01	1.894	1.768	1.675	1.568	1.478	1.389	1.311
313.15 K	1.605	1.529	1.461	1.386	1.329	1.264	1.207	1.151	1.101
323.15 K	1.07	1.05	1.031	1.01	0.994	0.974	0.957	0.939	0.923

CCCN(CCC)CCC + CCCCO
303.15 K, 101 kPa
Conditions	viscosity [mPa·s]
x1 = 0.01186	2.225
x1 = 0.01943	2.201
x1 = 0.03035	2.178
x1 = 0.03999	2.157
x1 = 0.05088	2.133
x1 = 0.0617	2.112
x1 = 0.07408	2.085
x1 = 0.08019	2.074
x1 = 0.08635	2.059

ClCCCCl + CCCCO
viscosity [mPa·s], 101 kPa
Conditions	x1 = 0.0958	x1 = 0.2016	x1 = 0.3004	x1 = 0.3983	x1 = 0.5002	x1 = 0.5993	x1 = 0.6997	x1 = 0.7997	x1 = 0.9
298.15 K	2.139	1.773	1.512	1.32	1.177	1.071	0.9963	0.9461	0.9256
313.15 K	1.488	1.261	1.101	0.9831	0.8935	0.8317	0.7876	0.76	0.7528

CCN(CC)c1ccccc1 + CCCCOCCO
viscosity [mPa·s], 101.3 kPa
Conditions	x2 = 0.0979	x2 = 0.2008	x2 = 0.289	x2 = 0.3526	x2 = 0.4964	x2 = 0.5968	x2 = 0.7021	x2 = 0.794	x2 = 0.8979
298 K	1.87	1.887	1.923	1.968	2.102	2.198	2.343	2.461	2.631
303 K	1.679	1.686	1.711	1.756	1.853	1.942	2.067	2.175	2.305
308 K	1.511	1.516	1.538	1.572	1.655	1.731	1.844	1.927	2.048
313 K	1.369	1.371	1.393	1.429	1.487	1.552	1.65	1.725	1.824
318 K	1.248	1.249	1.262	1.286	1.365	1.402	1.481	1.544	1.631

CCCC[NH3+].O=[N+]([O-])[O-] + CCCO
Conditions	viscosity [mPa·s]
293.15 K, 101 kPa, x1 = 0.9008	83.35
